In ChEMBL document CHEMBL4619729, “In silico and in vitro studies on interaction of novel non-imidazole histamine H3R antagonists with CYP3A4” (Bioorg Med Chem Lett, 2020):

Molecular target: T1, Histamine H3 receptor (Homo sapiens, UniProt Q9Y5N1)
Test: Displacement of [3H]-N-alpha-methylhistamine from human recombinant full length H3R expressed in HEK293 cell membranes by Microbeta scintillation counting method
Settings: not given

T1 sequence (Q9Y5N1 whole entry): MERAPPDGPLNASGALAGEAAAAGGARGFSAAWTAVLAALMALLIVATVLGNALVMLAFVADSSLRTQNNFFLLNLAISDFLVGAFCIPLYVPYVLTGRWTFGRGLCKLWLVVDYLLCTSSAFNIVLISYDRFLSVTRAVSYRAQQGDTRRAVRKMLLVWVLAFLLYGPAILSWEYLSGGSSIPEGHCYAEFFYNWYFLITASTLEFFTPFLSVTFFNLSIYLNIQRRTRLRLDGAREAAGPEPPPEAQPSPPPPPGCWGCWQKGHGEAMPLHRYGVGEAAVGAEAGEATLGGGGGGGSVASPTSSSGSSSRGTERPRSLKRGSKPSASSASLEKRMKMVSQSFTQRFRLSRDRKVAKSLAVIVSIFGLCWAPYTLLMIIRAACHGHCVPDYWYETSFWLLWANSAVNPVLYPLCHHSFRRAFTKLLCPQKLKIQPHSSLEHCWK

SMILES | Ki
O=C(c1ccccc1)c1cccc(OCCCCCCN2CCCCCC2)c1 | 41 nM

Molecular target: T2, CYP3A4 (Homo sapiens, UniProt P08684)
Test: Activation of human recombinant CYP3A4 assessed as activation of conversion of beetle D-luciferin to D-luciferin at 10 uM preincubated for 10 mins followed by substrate addition and measured after 50 mins in presence of NADPH by CYP450-Glo assay relative to control
Type: ADME
Settings: recombinant CYP3A4, probe beetle D-luciferin, read-out: Activity

T2 sequence (P08684 whole entry): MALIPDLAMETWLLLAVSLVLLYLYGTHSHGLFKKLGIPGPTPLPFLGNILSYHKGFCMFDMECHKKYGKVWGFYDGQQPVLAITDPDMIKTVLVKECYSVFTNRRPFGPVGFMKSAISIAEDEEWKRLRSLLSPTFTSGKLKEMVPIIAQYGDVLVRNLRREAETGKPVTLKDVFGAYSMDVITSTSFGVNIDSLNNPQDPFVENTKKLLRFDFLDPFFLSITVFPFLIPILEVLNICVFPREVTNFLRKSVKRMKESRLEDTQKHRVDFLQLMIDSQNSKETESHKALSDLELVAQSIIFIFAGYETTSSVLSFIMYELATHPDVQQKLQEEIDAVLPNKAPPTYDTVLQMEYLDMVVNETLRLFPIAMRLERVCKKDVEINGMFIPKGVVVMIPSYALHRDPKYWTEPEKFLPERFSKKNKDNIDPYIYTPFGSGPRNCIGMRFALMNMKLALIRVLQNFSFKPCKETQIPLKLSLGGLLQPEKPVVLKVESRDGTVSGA

SMILES | activity at 50 min, 10 µM
c1ccc2cc(OCCCCCCN3CCCCCC3)ccc2c1 | 14%

Molecular target: T1, Histamine H3 receptor
Test: Binding affinity to H3R (unknown origin)
Settings: not given

SMILES | Ki
CC(C)(C)c1ccc(OCCCCCCN2CCCCCC2)cc1 | 829 nM

Molecular target: Cytochrome P450 3A4 (Homo sapiens, UniProt P08684)
Test: Activation of CYP3A4 (unknown origin) assessed as activation of conversion of beetle D-luciferin to D-luciferin at 10 uM by luminescent P450-Glo assay relative to control
Type: ADME
Settings: not given

Chain of Cytochrome P450 3A4 (P08684 whole entry): as above

SMILES | Activity
CCC(C)(C)c1ccc(OCCCCCCN2CCCCCC2)cc1 | 18%
O=C(c1ccccc1)c1cccc(OCCCCCCN2CCCCCC2)c1 | 713%

Molecular target: T2, CYP3A4
Test: Inhibition of CYP3A4 (unknown origin) assessed as inhibition of conversion of beetle D-luciferin to D-luciferin at 10 uM by luminescent P450-Glo assay relative to control
Type: ADME
Settings: probe beetle D-luciferin

SMILES | inhibition at 10 µM
Clc1ccc(OCCCCCCN2CCCCCC2)cc1 | 23%
CC1CCCN(CCCCCCCOc2ccc(Cl)cc2)C1 (stereo not drawn) | 4%
c1ccc2c(OCCCCCCN3CCCCCC3)cccc2c1 | 46%
CC(C)(C)c1ccc(OCCCN2CCCCC2)cc1 | 61%
CCC(C)(C)c1ccc(OCCCN2CCCCC2)cc1 | 8%
CCC(C)(C)c1ccc(OCCCCCCCN2CCCCCC2)cc1 | 38%
CCC(C)(C)c1ccc(OCCCCCCCCN2CCCCCC2)cc1 | 41%
CCC(C)(C)c1ccc(OCCCCN2CCCCCC2)cc1 | 5%
CCC(C)(C)c1ccc(OCCCN2CCCCCC2)cc1 | 13%
c1ccc(-c2ccc(OCCCCCCN3CCCCCC3)cc2)cc1 | 13%
c1ccc(-c2cccc(OCCCCCCN3CCCCCC3)c2)cc1 | 19%
CC(C)(C)c1ccc(OCCCCCCN2CCCCCC2)cc1 | 19%
Fc1ccc(OCCCCCCN2CCCCCC2)cc1 | 17%
